In patent publication US20220363665A1, “QUINOLINE COMPOUNDS FOR THE TREATMENT OF AUTOIMMUNE DISEASE” (Hoffmann-La Roche Inc., priority 2019, published 2022):

How the values were obtained:
[1] = target: T1, human TLR9 (Homo sapiens, UniProt Q9NR96); assay: HEK293-Blue-hTLR-9 cells assay (SEAP reporter, ODN2006 stimulation); assay type: cell-based; details: HEK293-Blue-hTLR9 cells, ODN2006, 20 hrs
T1 construct: host or cells: HEK293 (HEK-Blue hTLR9)
T1 sequence (Q9NR96 26-1032): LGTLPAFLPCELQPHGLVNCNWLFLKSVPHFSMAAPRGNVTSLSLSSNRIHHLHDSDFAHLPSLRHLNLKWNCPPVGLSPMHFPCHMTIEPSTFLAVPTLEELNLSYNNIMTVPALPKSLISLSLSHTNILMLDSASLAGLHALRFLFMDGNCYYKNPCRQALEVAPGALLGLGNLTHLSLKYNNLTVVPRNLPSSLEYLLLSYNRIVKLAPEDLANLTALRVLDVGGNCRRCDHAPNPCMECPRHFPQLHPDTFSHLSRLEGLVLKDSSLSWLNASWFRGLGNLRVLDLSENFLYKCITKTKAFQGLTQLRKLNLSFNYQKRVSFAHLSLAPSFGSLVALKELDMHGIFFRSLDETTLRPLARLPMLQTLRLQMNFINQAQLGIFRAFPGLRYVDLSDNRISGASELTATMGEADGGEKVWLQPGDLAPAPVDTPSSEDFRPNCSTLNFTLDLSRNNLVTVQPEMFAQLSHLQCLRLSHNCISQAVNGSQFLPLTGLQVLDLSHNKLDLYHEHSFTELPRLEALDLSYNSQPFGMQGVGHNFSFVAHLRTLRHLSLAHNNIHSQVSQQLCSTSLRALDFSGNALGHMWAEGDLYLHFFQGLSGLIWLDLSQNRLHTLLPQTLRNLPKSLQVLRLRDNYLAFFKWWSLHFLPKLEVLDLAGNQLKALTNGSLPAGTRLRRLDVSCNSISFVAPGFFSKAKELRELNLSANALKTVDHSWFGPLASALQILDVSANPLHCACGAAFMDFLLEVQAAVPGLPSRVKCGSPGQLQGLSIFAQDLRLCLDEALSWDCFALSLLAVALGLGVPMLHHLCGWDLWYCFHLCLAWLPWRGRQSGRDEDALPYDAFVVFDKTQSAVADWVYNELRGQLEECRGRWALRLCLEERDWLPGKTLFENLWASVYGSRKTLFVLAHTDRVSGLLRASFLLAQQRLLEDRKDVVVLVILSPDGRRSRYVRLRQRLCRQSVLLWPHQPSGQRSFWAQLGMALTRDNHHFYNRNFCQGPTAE
Description: The following tests were carried out in order to determine the activity of the compounds of formula (I) in HEK293-Blue-hTLR-7/8/9 cells assay.
HEK293-Blue-hTLR-9 Cells Assay:
A stable HEK293-Blue-hTLR-9 cell line was purchased from InvivoGen (Cat. #. hkb-htlr9, San Diego, Calif., USA). These cells were originally designed for studying the stimulation of human TLR9 by monitoring the activation of NF-κB. A SEAP (secreted embryonic alkaline phosphatase) reporter gene was placed under the control of the […] minimal promoter fused to five NF-κB and AP-1-binding sites. The SEAP was induced by activating NF-κB and AP-1 via stimulating HEK-Blue hTLR9 cells with TLR9 ligands. Therefore the reporter expression was declined by TLR9 antagonist under the stimulation of a ligand, such as ODN2006 (Cat. #: tlrl-2006-1, Invivogen, San Diego, Calif., USA), for incubation of 20 hrs. The cell culture supernatant SEAP reporter activity was determined using QUANTI-Blue™ kit (Cat. #: rep-qbl, Invivogen, San Diego, Calif., USA) at a wavelength of 640 nm, a detection medium that turns purple or blue in the presence of alkaline phosphatase.
HEK293-Blue-hTLR9 cells were incubated at a density of […] cells/mL in a volume of 170 μL, in a 96-well plate in Dulbecco's Modified Eagle's medium (DMEM) containing 4.5 g/L glucose, 50 U/mL penicillin, […], […], 2 mM L-glutamine, 10% (v/v) heat-inactivated fetal bovine serum with addition of 20 μL test compound in a serial dilution in the presence of final DMSO at 1% and 10 μL of 20 uM ODN2006 in above DMEM, perform incubation under 37° C. in a CO2 incubator for 20 hrs. Then 20 μL of the supernatant from each well was incubated with 180 μL Quanti-blue substrate solution at 37° C. for 2 hrs and the absorbance was read at 620˜655 nm using a spectrophotometer. The signalling pathway that TLR9 activation leads to downstream NF-κB activation has been widely accepted, and therefore similar reporter assay was modified for evaluating TLR9 antagonist.

[2] = LYSA solubility assay; assay type: physicochemical; details: 0.05 M phosphate buffer, pH 6.5, aqueous buffer, thermodynamic from solid
Description: LYSA study is used to determine the aqueous solubility of tested compounds. Samples are prepared in duplicate from 10 mM DMSO stock solution. After evaporation of DMSO with a centrifugal vacuum evaporator, compounds are dissolved in a 0.05 M phosphate buffer (pH 6.5), stirred for one hr and shaken for two hrs. After one night, the solutions are filtered using a microtiter filter plate. Then the filtrate and its 1/10 dilution are analyzed by HPLC-UV. In addition, a four-point calibration curve is prepared from the 10 mM stock solutions and used for the solubility determination of the compounds. The results are in μg/mL. In case the percentage of sample measured in solution after evaporation divided by the calculated maximum of sample amount is bigger than 80%, the solubility is reported as bigger than this value.

| Compound | IC50 [1] [µM] | solubility thermodynamic [2] [mg/mL] |
| --- | --- | --- |
| C[C@@H]1CN(c2ccc(C(F)(F)F)c3ncccc23)C[C@H](C(=O)NCC2COCCN2C)O1 (stereo partly drawn) [Example 11, (2R,6R)-6-methyl-N-[(4-methylmorpholin-3-yl)methyl]-4-[8-(trifluoromethyl)-5-quinolyl]morpholine-2-carboxamide] | > 100 | > 0.74 |
| C[C@@H]1CN(c2ccc(C(F)(F)F)c3ncccc23)C[C@H](C(=O)NC2CNCCOC2)O1 (stereo partly drawn) [Example 14, (2R,6R)-6-methyl-N-(1,4-oxazepan-6-yl)-4-[8-(trifluoromethyl)-5-quinolyl]morpholine-2-carboxamide] | 29.4 | > 0.695 |
| Cc1ccc(N2C[C@@H](C)O[C@@H](C(=O)NCC3CN(C)CCO3)C2)c2cccnc12 (stereo partly drawn) [Example 17, (2R,6R)-6-methyl-N-[(4-methylmorpholin-2-yl)methyl]-4-(8-methyl-5-quinolyl)morpholine-2-carboxamide] | > 100 | > 0.485 |
| C[C@@H]1CN(c2ccc([N+](=O)[O-])c3ncccc23)C[C@H](C(=O)NCC2CN(C)CCO2)O1 (stereo partly drawn) [Example 18, (2R,6R)-6-methyl-N-[(4-methylmorpholin-2-yl)methyl]-4-(8-nitro-5-quinolyl)morpholine-2-carboxamide] | 54.8 | > 0.53 |
| C[C@@H]1CN(c2ccc([N+](=O)[O-])c3ncccc23)C[C@H](C(=O)N[C@@H]2CNC[C@@H]2F)O1 [Example 19, cis-(2R,6R)-N-[41-fluoropyrrolidin-3-yl]-6-methyl-4-(8-nitro-5-quinolyl)morpholine-2-carboxamide] | 50.7 | > 0.51 |
| C[C@@H]1CN(c2ccc([N+](=O)[O-])c3ncccc23)C[C@H](C(=O)NC2CCN(C)CC2)O1 [Example 20, (2R,6R)-6-methyl-N-(1-methyl-4-piperidyl)-4-(8-nitro-5-quinolyl)morpholine-2-carboxamide] | 14.9 | > 0.515 |

Further lines, results first:

| IC50 [1] [µM] | solubility thermodynamic [2] [mg/mL] | Compound |
| --- | --- | --- |
| 6.3 | > 0.665 | C[C@@H]1CN(c2ccc(C(F)(F)F)c3ncccc23)C[C@H](C(=O)N2CCC(N)CC2)O1 [Example 12, (4-amino-1-piperidyl)-[(2R,6R)-6-methyl-4-[8-(trifluoromethyl)-5-quinolyl]morpholin-2-yl]methanone] |
| > 100 | > 0.725 | C[C@@H]1CN(c2ccc(C(F)(F)F)c3ncccc23)C[C@H](C(=O)NCCN2CCOCC2)O1 [Example 13, (2R,6R)-6-methyl-N-(2-morpholinoethyl)-4-[8-(trifluoromethyl)-5-quinolyl]morpholine-2-carboxamide] |
| 39.9 | > 0.45 | Cc1ccc(N2C[C@@H](C)O[C@@H](C(=O)NC3CCN(C)CC3)C2)c2cccnc12 [Example 16, (2R,6R)-6-methyl-N-(1-methyl-4-piperidyl)-4-(8-methyl-5-quinolyl)morpholine-2-carboxamide] |
| 38 | > 0.435 | Cc1ccc(N2C[C@@H](C)O[C@@H](C(=O)N[C@@H]3CNC[C@@H]3F)C2)c2cccnc12 [Example 21, cis-(2R,6R)-N-14-fluoropyrrolidin-3-yl1-6-methyl-4-(8-methyl-5-quinolyl)morpholine-2carboxamide] |
| 37 | > 0.455 | C[C@@H]1CN(c2ccc(Cl)c3ncccc23)C[C@H](C(=O)N[C@H]2CNC[C@H]2F)O1 [Example 22, (2R,6R)-4-(8-chloro-5-quinolyl)-N-[(3S,4R)-4-fluoropyrrolidin-3-yl]-6-methyl-morpholine-2-carboxamide] |
| 7 | > 0.315 | C[C@H]1C[C@@H](N)CN(c2ccc(Cl)c3ncccc23)C1 [Example 23, (3R,5S)-1-(8-chloro-5-quinolyl)-5-methyl-piperidin-3-amine] |
| 23.7 | > 0.475 | C[C@@H]1CN(c2ccc(Cl)c3ncccc23)C[C@H](C(=O)NC2CCN(C)CC2)O1 [Example 24, (2R,6R)-4-(8-chloro-5-quinolyI)-6-methyl-N-(1-methyl-4-piperidyl)morpholine-2-carboxamide] |
